Reference: patent US7589080B2, “β-cyclodextrin compositions, and use to prevent transmission of sexually transmitted diseases” (priority 2000, dated 2009)

Columns and labels:
[1] = system: HIV-1RF; assay: Free-virus mediated syncytium assay (fusion from without); type: cell-based; conditions: MT2, SupT1, PM1; HIV-1RF >500 ng/ml p24, 3 hr at 37° C
Description: Syncytium assays were carried out essentially as previously described (Hildreth and Orentas, supra, 1989). Briefly, cell lines or PHA blasts were treated with 20 mM 2-OH-βCD in RPMI 1640 or medium alone for 1 hr at 37° C. before washing twice with PBS. The treated cells were then mixed with HIV-1 infected cells, each at density of 2×10^6/ml, in cRPMI and incubated at 37° C. Syncytia were scored and photographed 3 to 6 hr after mixing. For free-virus mediated syncytium assays (“fusion from without”), HIV-1RF from infected PM1 culture supernatants were clarified by 0.45 Tm filtration (p24 concentration greater than 500 ng/ml). 2-OH-βCD-treated and non-treated cell lines were added to the virus preparations and incubated at 37° C. for 3 hr before counting syncytia.
The effect of cholesterol depletion on virus-cell fusion (“fusion from without”) was also determined.

[2] = system: HIV-1; assay: Virus production and infectivity of virions from cholesterol-depleted cells; type: cell-based
Description: PM1 cells chronically infected with HIV-1RF were washed and treated with 20 mM 2-OH-βCD in cRPMI or with cRPMI alone for 1 hr at 37° C. The cells were then washed twice before resuspension at a density of 5×10^6/ml in cRPMI. The cells were incubated for 6 hrs at 37° C., 5% CO2 and pelleted by centrifugation. Supernatants, which contained the virus, were collected and purified by centrifugation through a 20% sucrose cushion (Liao et al., supra, 2000). The virus pellets were taken up in cRPMI and titrated against LuSIV cells to determine infectivity. P24 was measured in a standard p24 ELISA.
The effect of 2-OH-βCD on infectivity of HIV was measured in a Luciferase-based single cycle infection assay as previously described (Liao et al., supra, 2000). LuSIV cells were treated with 20 mM 2-OH-βCD in iRPMI or iRPMI alone for 1 hr at 37° C. Cells were then washed with iRPMI before being resuspended in cRPMI at a density of 2×10^6/ml. Cells in 100 Tl were mixed with cRPMI or with dilutions of virus supernatant (62 to 500 pg/ml of p24) from 2-OH-βCD-treated or untreated PM1 cells and allowed to incubate overnight (16 hr) at 37° C. […] After centrifugation at 13,000×g for 30 seconds, 10, μl of lysate were added to 100 μl Luciferase Reagent (Promega) in an opaque 96 well plate and luminescence was measured on a Packard Lumicount luminometer (Downers Grove, Ill.).

[3] = system: CXCR4; assay: Flow cytometry of CXCR4 surface expression; type: cell-based
Description: Flow cytometry was performed as previously described (Orentas and Hildreth, supra, 1993). Briefly, 2×10^5 2-OH-βCD treated or untreated cells in 100 μl PBS containing 5% normal goat serum (NGS) were added to 100 μl of MAb (1-5 μg) and incubated 30 min on ice. In comparative experiments we prefixed the cells with 2% paraformaldehyde in PBS immediately after 2-OH-βCD treatment. Cells were washed with PBS, resuspended in 100 μl of PBS, 5% NGS containing 2 Tg of FITC conjugated-goat anti-mouse IgG (FITC-GAM) and incubated 1 h on ice. Cells were then washed with PBS and fixed with 2% paraformaldehyde followed by analysis on an EPICS Profile II flow cytometer.
Cholesterol depletion also promoted CXCR4 down-modulation by MAb-induced internalization. A possible explanation for the inhibition of syncytium formation by cholesterol depletion as described above is that CD4, CRs, or both are lost from the cell surface, for example, by extrusion from the membrane in vesicles after loss of cholesterol, or they could be internalized. To explore these possibilities, βCD treated cells were examined for expression of HIV receptors by flow cytometry. […] In contrast, cell surface expression of CXCR4 was reduced by 50% or more in all of the cells after 2-OH-βCD treatment (Table 1).
In order to determine whether the loss of CXCR4 expression was due to MAb-induced internalization, cells were fixed with 2% paraformaldehyde in PBS immediately after 2-OH-βCD treatment and before staining with MAbs for flow cytometry.

[4] = system: HIV; assay: Luciferase-based single cycle infectivity assay in LuSIV cells; type: cell-based, HIV-1; conditions: LuSIV cells treated with 20 mM; all viral input levels
Description: The effect of 2-OH-βCD on infectivity of HIV was measured in a Luciferase-based single cycle infection assay as previously described (Liao et al., supra, 2000). LuSIV cells were treated with 20 mM 2-OH-βCD in iRPMI or iRPMI alone for 1 hr at 37° C. Cells were then washed with iRPMI before being resuspended in cRPMI at a density of 2×10^6/ml. Cells in 100 Tl were mixed with cRPMI or with dilutions of virus supernatant (62 to 500 pg/ml of p24) from 2-OH-βCD-treated or untreated PM1 cells and allowed to incubate overnight (16 hr) at 37° C. The LuSIV cells were washed with PBS and lysed with 100 Tl of Reporter Lysis Buffer (Promega). After centrifugation at 13,000×g for 30 seconds, 10, μl of lysate were added to 100 μl Luciferase Reagent (Promega) in an opaque 96 well plate and luminescence was measured on a Packard Lumicount luminometer (Downers Grove, Ill.).
The effects of βCD treatment on HIV infectivity were measured in a sensitive single-cycle infection assay based on a cell line transfected with an LTR-luciferase cassette. […] Quantitative measurements of single round infection are obtained with this assay system (Roos et al., Virology 273:307-315, 2000, which is incorporated herein by reference). […]

2-hydroxypropyl-β-cyclodextrin [2-OH-βCD]
Syncytium formation on exposure to free virus [1]: no syncytium formation | Infectivity of virions from cholesterol-depleted cells [2]: significantly less infectious | Production of HIV-1 virions from cholesterol-depleted cells [2]: dramatically decreased | CXCR4 (MCF) ([3]; H9, 20 mM, fixed with 2% paraformaldehyde immediately after treatment): 55 MCF | CXCR4 (MCF) ([3]; H9 cells, 20 mM, not fixed before staining): 6.7 MCF | CXCR4 (MCF) ([3]; MT2 cells, 20 mM, not fixed before staining): 16.7 MCF | CXCR4 (MCF) ([3]; PM1, 20 mM, fixed with 2% paraformaldehyde immediately after treatment): 64 MCF | CXCR4 (MCF) ([3]; PM1 cells, 20 mM, not fixed before staining): 3.1 MCF | CXCR4 (MCF) ([3]; SupT1, 20 mM, fixed with 2% paraformaldehyde immediately after treatment): 91 MCF | CXCR4 (MCF) ([3]; SupT1 cells, 20 mM, not fixed before staining): 15.0 MCF | Reduction of cell surface expression of CXCR4 ([3]; all of the cells, not fixed before staining): ≥ 50% | Anti-CXCR4 MAb staining compared to control cells ([3]; cells fixed and permeabilized after the MAb binding step): no significant reduction | CXCR4 expression on the cell surface ([3]; cells fixed immediately after treatment, before MAb staining): remained unchanged | Reduction of HIV infection of LuSIV cells [4]: ~100%
